Assays:
Type in all cases: functional
[1] = system: SW480; test: Antitumor activity against human SW480 cells assessed as inhibition of cell growth at 40 uM incubated for 48 hrs by MTS assay relative to control
[2] = system: A549; test: Antitumor activity against human A549 cells assessed as inhibition of cell growth at 40 uM incubated for 48 hrs by MTS assay relative to control
[3] = system: MCF7; test: Antitumor activity against human MCF7 cells assessed as inhibition of cell growth at 40 uM incubated for 48 hrs by MTS assay relative to control
[4] = system: SMMC-7721; test: Antitumor activity against human SMMC-7721 cells assessed as inhibition of cell growth at 40 uM incubated for 48 hrs by MTS assay relative to control
[5] = system: HL-60; test: Antitumor activity against human HL-60 cells assessed as inhibition of cell growth at 40 uM incubated for 48 hrs by MTS assay relative to control
[6] = system: A549; test: Induction of apoptosis in human A549 cells assessed as live cells at 1 uM measured after 24 hrs by Annexin V-PE/7-AAD dual staining based flow cytometry (reference value: 93.3 %)
[7] = system: A549; test: Induction of apoptosis in human A549 cells assessed as necrotic cells at 1 uM measured after 24 hrs by Annexin V-PE/7-AAD dual staining based flow cytometry (reference value: 0.150 %)
[8] = system: A549; test: Induction of apoptosis in human A549 cells assessed as late apoptotic cells at 1 uM measured after 24 hrs by Annexin V-PE/7-AAD dual staining based flow cytometry (reference value: […])
[9] = system: A549; test: Induction of apoptosis in human A549 cells assessed as early apoptotic cells at 1 uM measured after 24 hrs by Annexin V-PE/7-AAD dual staining based flow cytometry (reference value: 4.04 %)

| Compound | inhibition at 40 µM [1] [%] | inhibition at 40 µM [2] [%] | inhibition at 40 µM [3] [%] | inhibition at 40 µM [4] [%] | inhibition at 40 µM [5] [%] | Activity [6] [%] | Activity [7] [%] | Activity [8] [%] | Activity [9] [%] |
| --- | --- | --- | --- | --- | --- | --- | --- | --- | --- |
| Cc1cccc(NC(=O)CN2C(=O)C(=O)c3ccccc32)c1 | 31.8 | 7.75 | 45.2 | 40.2 | 25.1 |  |  |  |  |
| COc1cc(C(C)=O)ccc1OC(=O)C(C)N1C(=O)c2ccccc2C1=O (centres undefined) | 4.18 | 6.5 | 15.3 | 6.87 | 8.86 |  |  |  |  |
| O=C(CC1(O)C(=O)N(CN2CCOCC2)c2ccccc21)c1ccc(Cl)cc1 (centres undefined) | 15.3 | 1.72 | 8.23 | 15.2 | 15.6 |  |  |  |  |
| COc1cccc2c1C(=O)c1c(O)c3c(c(O)c1C2=O)C[C@@](O)(C(=O)CO)C[C@@H]3O[C@H]1C[C@H](N)[C@H](O)[C@H](C)O1 [DOXORUBICIN] |  |  |  |  |  | 49.8 | 0.965 | 18.4 | 30.8 |
| CC1=CC(C2CC(=O)N(c3ccccc3C)C2=O)CC2C(=O)N(c3ccccc3C)C(=O)C12 (centres undefined) | 6.73 | 4.1 | 12.3 | 9.68 | 10.7 |  |  |  |  |
| O=C(NCC1(N2CCOCC2)CCCCC1)c1ccc2c(c1)C(=O)N(c1ccc(F)cc1)C2=O | 8.82 | 9.68 | 13.6 | 16.4 | 11.5 |  |  |  |  |
| NC(=O)CN1C(=O)C(O)(CC(=O)c2ccc3c(c2)OCO3)c2ccccc21 (centres undefined) | 14.8 | 11.2 | 6.11 | 11.6 | 21.6 |  |  |  |  |
| CCOC(=O)C1(Cc2ccccc2)C(=O)N(CCCN(C)C)c2ccccc21 (centres undefined) | 3.98 | 7.46 | 28.9 | 12.8 | 5.85 |  |  |  |  |
| N#CCCCN1C(=O)C(O)(CC(=O)c2ccc3c(c2)OCCO3)c2ccccc21 (centres undefined) | 13.5 | 7.13 | -0.19 | 11.5 | -21.4 |  |  |  |  |
